What was measured:
[1] = tested on: mouse embryonic stem cells; test: Cytotoxicity and apoptosis assay (annexin-V / 7-AAD) in mouse embryonic stem cells; assay type: cell-based; settings: incubated with mouse embryonic stem cells; FIG. 1
Description: Bisphenols have come under increasing scrutiny due to their capacity to mimic estrogen in biological systems, resulting in numerous health complications. Specifically these effects have been observed in endothelial cell differentiation. Bredhult et al., “Gene expression analysis of human endometrial endothelial cells exposed to Bisphenol A,” Reproductive toxicology (Elmsford, N.Y 28, 18-25 (2009). Long et al., Experimental biology and medicine, 226, 477-483 (2001). Accordingly, experiments have been carried out to evaluate the cytotoxicity and differentiation effect of a biologically derived bisphenol polymer precursor replacement. Resveratrol and bisphenol A were incubated with mouse embryonic stem cells and evaluated for cytotoxicity and apoptosis. Cells were then differentiated and evaluated for effect on endothelial differentiation. […]
The procedure for testing toxicity was and can be carried out as follows. […] 100,000 E14 cells were added to a 10 cm plate, covered with 1, 10 and 100 mg of polymer sample, and incubated for 48 hours followed by application of the MTT dye solutions and measurement of absorbance at 570 nm.
The number of apoptotic cells are quantified using an annexin-V apoptosis staining kit with 7-Amino-actinomycin D (7-AAD) vital stain (AnnexinV—PE Apoptosis Detection Kit; BD Biosciences Pharmingen, San Diego, Calif.). […]

[2] = tested on: mouse embryonic stem cell line (endothelial differentiation reporter); test: Endothelial differentiation assay in reporter mouse embryonic stem cell line (green fluorescent protein readout); assay type: cell-based; settings: FIG. 1; for effect on estrogen receptor function: reporter cell line; for effect on cell (endothelial) differentiation: reporter mouse embryonic stem cell line, cells differentiated after incubation
Description: Bisphenols have come under increasing scrutiny due to their capacity to mimic estrogen in biological systems, resulting in numerous health complications. Specifically these effects have been observed in endothelial cell differentiation. Bredhult et al., “Gene expression analysis of human endometrial endothelial cells exposed to Bisphenol A,” Reproductive toxicology (Elmsford, N.Y 28, 18-25 (2009). Long et al., Experimental biology and medicine, 226, 477-483 (2001). Accordingly, experiments have been carried out to evaluate the cytotoxicity and differentiation effect of a biologically derived bisphenol polymer precursor replacement. Resveratrol and bisphenol A were incubated with mouse embryonic stem cells and evaluated for cytotoxicity and apoptosis. Cells were then differentiated and evaluated for effect on endothelial differentiation. […] Further studies are planned to test further stages of resveratrol epoxidization. The inventor's lab has developed a mouse embryonic stem cell line capable of providing a quantitative readout of endothelial differentiation due to expression of a green fluorescent protein. Using these and similar cell lines we have been able to assay the effect of new molecules on cell proliferation, death, apoptosis, and endothelial differentiation. Robilotto et al., Dalton Transactions, 40(32): 8083-5 (2011). This cell line will be used to determine the biological effect of the newly proposed polymers as compared to the effect of benchmark controls. Protocols similar to those previously published can be used to determine the biocompatibility of the new polymers as compared to that of benchmark resin, evaluating the capacity of mouse embryonic stem cells to proliferate, their rate of cell death by toxicity or apoptosis, and their capacity to differentiate into […]. Kim et al., Tissue engineering, 15, 3709-3718 (2009); Kim et al., Tissue engineering, 16, 1065-1074 (2010).

Structure (SMILES)	over toxicity using the apoptosis assay [1]	effect on estrogen receptor function [2]	effect on cell (endothelial) differentiation [2]	effect on estrogen receptor function ([2]; listed as BPA)	effect on cell (endothelial) differentiation ([2]; listed as BPA)
Oc1ccc(C=Cc2cc(O)cc(O)c2)cc1 [Resveratrol, resveratrol]	relatively indistinguishable	little to no impact on estrogen receptor function	comparable to negative controls		
CC(C)(c1ccc(O)cc1)c1ccc(O)cc1 [bisphenol A]	relatively indistinguishable	clearly interferes with estrogen receptor function	negatively effects cell differentiation	interferes estrogen receptor function	negatively impacts cell differentiation
